Literature values as cited in patent US20030198619A1, “Formulation and dosage form for increasing oral bioavailability of hydrophilic macromolecules” (priority 2001, published 2003).
Like-named read-outs stand apart in the source and are kept apart here.

Key:
[1] = in vivo

NC(=O)CC[C@@H]1NC(=O)[C@H](Cc2ccccc2)NC(=O)[C@H](Cc2ccc(O)cc2)NC(=O)CCSSC[C@@H](C(=O)N2CCC[C@H]2C(=O)N[C@H](CCCN=C(N)N)C(=O)NCC(N)=O)NC(=O)[C@H](CC(N)=O)NC1=O [dDAVP, Desmopressin]
oral bioavailability [1]: about 0.15%

pentosan polysulfate sodium [PPS]
elimination half-life in urine (after oral administration): 4.8 h
oral bioavailability (in humans): approximately 3%
elimination half-life (mean value following IV injection): 24 h
